Where a name gives a salt, the structure may show the parent alone.
Assays:
HCT116 [1] = conditions: 72 h
Procedure: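 HCT116 control and MTA1-KO (CRISPR) HCT116 cells were seeded in 384-well plates (800 cells/well), treated 16 h later with 237 metabolism-related anticancer drugs at five doses (10 uM, 2 uM, 400 nM, 80 nM, 16 nM) for 72 h, two replicates; viability by CCK8. Values are % inhibition of viability relative to untreated cells, plus fitted IC50.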

HCT116 [2] = experiment: viability inhibition vs untreated; higher = more cytotoxic; conditions: 72 h

SMILES | IC50 (HCT116 [1]; genotype: MTA1-KO) [µM] | IC50 (HCT116 [1]; genotype: control) [µM] | viability inhibition (HCT116 [2]; genotype: MTA1-KO, 16 nM) [%] | viability inhibition (HCT116 [2]; genotype: MTA1-KO, 80 nM) [%] | viability inhibition (HCT116 [2]; genotype: MTA1-KO, 400 nM) [%] | viability inhibition (HCT116 [2]; genotype: MTA1-KO, 2000 nM) [%] | viability inhibition (HCT116 [2]; genotype: MTA1-KO, 10000 nM) [%] | viability inhibition (HCT116 [2]; genotype: control, 16 nM) [%] | viability inhibition (HCT116 [2]; genotype: control, 80 nM) [%] | viability inhibition (HCT116 [2]; genotype: control, 400 nM) [%] | viability inhibition (HCT116 [2]; genotype: control, 2000 nM) [%] | viability inhibition (HCT116 [2]; genotype: control, 10000 nM) [%]
Oc1ccc2c(c1)OCO2 [Sesamol] | > 10 | > 10 | -15.3 | -20.6 | -20.7 | -23.5 | -9.02 | 12.7 | -1.76 | -11.9 | -12.6 | -2.94
CCc1ccc(/C=C2/SC(=S)NC2=O)cc1 | > 10 | > 10 | -4.9 | -10 | -9.11 | -3.79 | 1.27 | 7.22 | 4.14 | 13 | 9.23 | 12.7
NCCCCN=C(N)N [Agmatine sulfate salt] | 8.87 | > 10 | -2.78 | 3.53 | 1.54 | 7.76 | 55.4 | 11.2 | 9.12 | 22.6 | 28.6 | 22.5
COc1ccc(-c2ccccc2)cc1NS(=O)(=O)c1cc(Cl)cc(Cl)c1O | > 10 | > 10 | 4.57 | -1.5 | -3.79 | -1.98 | 8.72 | -1.23 | 6.1 | 4.53 | 6.77 | 13.4
O=C(O)[C@@]1(CCCCCCOc2ccc(Cl)cc2)CO1 [(R)-Etomoxir sodium salt] | > 10 | > 10 | -11.4 | -21.5 | -17.4 | -13.9 | 37.6 | 12.3 | 19.7 | 14.6 | 15.3 | 26.1
N[C@@H](CSCCB(O)O)C(=O)O [BEC HCl] | 8.12 | > 10 | 7.68 | -6.82 | -3.32 | 5.74 | 56.8 | -17.3 | -19 | -3.82 | -14 | -7.11
CCCCCCCCCCCCc1ccc(S(=O)(=O)Nc2nncs2)cc1 [PHT427] | > 10 | > 10 | -19.3 | -22.1 | -13 | -17.1 | -3.56 | 20.4 | -3.89 | -1.76 | -0.669 | 9.06
O=C(Cc1ccccc1)Nc1nnc(CCSCCc2nnc(NC(=O)Cc3ccccc3)s2)s1 [BPTES] | > 10 | > 10 | -12.8 | -12.2 | 0.728 | 8.71 | 41.5 | -3.88 | -3.14 | -1.6 | -0.809 | -19.2
NS(=O)(=O)c1ccccc1 [Benzenesulfonamide] | 9.29 | 8.77 | 3.96 | -4.26 | 4.06 | 12.2 | 54.7 | 7.65 | 12.9 | 10.8 | 25.5 | 55.6
Cc1ccc2nc(N)[nH]c(=O)c2c1Sc1ccncc1 [Nolatrexed] | 9.66 | > 10 | 8.71 | 2.94 | -1.21 | 1.75 | 76 | -21.6 | -20.5 | 4.76 | -22.2 | -11.3
CC(C)(C#N)c1ccc(N2C(=O)OCc3cnc4ccc(-c5cnc6ccccc6c5)cc4c32)cc1 | > 10 | > 10 | -21.1 | -19.6 | -26.7 | -3.23 | 30.7 | 8.09 | -11.9 | -11.4 | -0.304 | 45.6
CC(O)=C(C#N)C(=O)Nc1ccc(C(F)(F)F)cc1 [Teriflunomide] | > 10 | > 10 | -20.1 | -19.6 | -22.5 | -31.4 | -28.2 | 12.8 | -1.7 | -4.62 | -5.29 | 10.1
NS(=O)(=O)c1cc(Cl)c(Cl)c(S(N)(=O)=O)c1 [Dichlorphenamide] | > 10 | > 10 | 6.61 | -0.189 | -0.404 | -3.85 | 16.5 | -20.7 | -6.03 | -16.5 | -12.6 | -18.3
CC[C@H](CC#N)OC(=O)N[C@@H](C)c1cccc(NC(=O)Nc2ccc(-c3cnco3)c(OC)c2)c1 [AVN944] | 0.311 | 0.131 | 5.16 | 4.61 | 58.7 | 80.9 | 93.7 | -0.119 | 29.5 | 75.2 | 92.9 | 96.3
COc1cccc(-c2ccc(NC(=O)C3=C(C(=O)O)CCC3)c(F)c2)c1 [Vidofludimus] | 7.17 | 8.85 | 16.3 | 14.4 | 15.2 | 18.4 | 72.5 | 14.5 | 16.4 | 19.6 | 28.3 | 60.9

From the supplement of paper PMC10477900
